# In patent US12011499B2, “Peptides and compositions for use in cosmetics” (LIPOTRUE, S.L., priority 2020, dated 2024):
# Tests used:
# hyaluronic acid = test: Modulation of hyaluronic acid synthesis in HDFa cell culture (competitive ELISA); type: cell-based, human; conditions: 48 hours
# Procedure: Modulation of Hyaluronic acid production by Ac-SEQ ID NO: 3-NH2 peptide (synthesized in accordance with examples 1-3 and 5) on HDFa was evaluated in vitro.
# Briefly, HDFa were seeded in 96-well plates at a density of 1×10^4 cells/well and, then, incubated with non-cytotoxic concentrations of Ac-SEQ ID NO: 3-NH2 peptide, this is 0.01 mg/ml, 0.05 mg/ml, 0.1 mg/ml and 0.5 mg/ml, for 48 hours. 0.1 μM retinoic acid was included as positive control and untreated cells were included as basal control. At the end of the experiment, cell culture media were extracted from all wells and stored at −80° C. Ex-novo synthesis of hyaluronic acid was measured by means of competitive ELISA following manufacturer's instructions.
# Versican (VCAN) = test: Gene expression modulation in HDFa (RTqPCR), VCAN; type: cell-based, human; conditions: 0.05 mg/ml, 6 hours
# Procedure: (§1) Changes in gene expression levels are represented as a positive or negative fold-change with regard to the basal control (untreated cells). Bars from top to bottom in the y axis refer to: Metalloproteinase-1 (MMP1), Metalloproteinase-3 (MMP3), Fibronectin 1 (FN1), Fibrillin-1 (FBN1) and Versican (VCAN) genes, and x axis refers to fold change vs basal control.
# (§2) Modulation of gene expression by Ac-SEQ ID NO: 3-NH2 peptide (synthesized in accordance with examples 1-3 and 5) on HDFa was evaluated in vitro.
# (§3) Briefly, HDFa cells were seeded in duplicate in 6-well plates at a density of 4×10^5 cells/well and they were maintained at standard culture conditions (37° C., 95% humidity, 5% CO2) for 24 hours. Then, cells were treated with Ac-SEQ ID NO: 3-NH2 peptide at the non-cytotoxic concentration of 0.05 and 0.1 mg/ml for additional 6 hours. Untreated cells were used as basal control. […] RNA was then quantified by nanodrop, adjusted in concentration and processed for retrotranscription to cDNA using a commercially available kit (High-Capacity cDNA Reverse Transcription kit—Thermofisher Scientific, USA). Resulting cDNA was used to perform a RTqPCR (Real Time Quantitative Polymerase Chain Reaction) using taqman technology and a panel of probes designed to target specific genes related to extracellular matrix components and structure.
# facial skin firmness = test: Clinical evaluation of facial skin firmness on female volunteers (Dynaskin); type: in vivo, human; conditions: 0.015 mg/ml in cosmetic formulation, two times per day, after 56 days, whole treated group
# Procedure: The effect of Ac-SEQ ID NO: 3-NH2 peptide (synthesized in accordance with examples 1-3 and 5) on facial skin firmness was evaluated on 22 Caucasian female volunteers.
# Briefly, volunteers applied a cosmetic formulation with 3% (m/v) from a stock at 0.05% (m/v) of Ac-SEQ ID NO: 3-NH2 (effective final concentration of Ac-SEQ ID NO: 3-NH2, 0.015 mg/ml) or without (placebo). The application regime was of two times per day during 56 days, on early morning and before bedtime. Cosmetic formulations were applied on either half of clean face in order to compare the effect of placebo and the active on the same volunteer.
# On days 0, 7, 14 and 56, a Dynaskin device was used on each volunteer in order to measure the firmness quality of the skin according to three parameters: volume (mm^3), area (mm^2) and depth (mm). Dynaskin uses an air beam projection onto the cheek area causing a deformation of the skin. This deformation magnitude is measured by means of a specific software collecting data of the above three parameters for each volunteer and on each hemiface.
# versican [1] = test: Modulation of versican synthesis on human skin explants (immunostaining); conditions: 0.005 mg/ml in cosmetic formulation, topical on days 0, 2, 4 and 7, explants collected day 9
# Procedure: The effect of Ac-SEQ ID NO: 3-NH2 peptide (synthesized in accordance with examples 1-3 and 5) on versican production was evaluated on human skin explants from a donor.
# Briefly, skin explants were obtained from a volunteer donor undergoing a plastic surgery procedure. Skin excess was donated for the present study. Skin explants were treated with a cosmetic formulation containing 1% (m/v) from a stock at 0.05% (m/v) of Ac-SEQ ID NO: 3-NH2 (effective final concentration of Ac-SEQ ID NO: 3-NH2, 0.005 mg/ml). On days 0, 2, 4 and 7, the tested product was topically applied on the basis of 2 μl per cm^2 of skin explant and spread using a small spatula.
# On day 9, 3 explants from each condition were collected and fixed in a buffered formalin solution. After fixation for 24 hours in buffered formalin, samples were dehydrated and impregnated and embedded in paraffin. 5-μm-thick sections were made using a Leica RM 2125 Minot-type microtome, and the sections were mounted on Superfrost® histological glass slides. The microscopical observations were performed using a Leica DMLB or Olympus BX43 microscope. Pictures were digitized with a numeric DP72 Olympus camera with CellD storing software.
# The immunostaining was performed using an automated slide-processing system (Dako, AutostainerPlus). The staining was assessed by microscopical observation and image analysis.
# [2] = system: Metalloproteinase-1 (MMP1); test: Gene expression modulation in HDFa (RTqPCR), MMP1; type: cell-based, human; conditions: 0.1 mg/ml, 6 hours
# Procedure: as §1, §2, §3
# HDFa = test: Cytotoxicity of tested concentrations on HDFa; type: cell-based, human; conditions: 0.01, 0.05, 0.1 and 0.5 mg/ml
# versican [3] = test: Modulation of versican synthesis in HDFa cell culture (sandwich ELISA); type: cell-based, human; conditions: 24 hours
# Procedure: The effect of Ac-SEQ ID NO: 3-NH2 peptide (synthesized in accordance with examples 1-3 and 5) on versican production was evaluated in vitro using human dermal fibroblasts (hereinafter, HDFa).
# Briefly, HDFa cells were seeded in 96-well plates at 1×10^4 cells/well in fibroblasts growth media and maintained for 24 hours at standard culture conditions (37° C., 95% humidity, 5% CO2). After the aforementioned incubation, medium was removed and new medium containing the non-cytotoxic concentrations of Ac-SEQ ID NO: 3-NH2 peptide of: 0.01 mg/ml, 0.05 mg/ml and 0.1 mg/ml was added and incubated for 24 hours. 0.1 μM retinoic acid was included as positive control for versican stimulation and untreated cells were included as basal control. Cell culture media and cell lysate were collected from all wells at the end of the experiment and stored at −80° C. Ex-novo synthesis of versican was measured by means of sandwich ELISA following manufacturer's instructions.
# tropoelastin = test: Modulation of tropoelastin synthesis in HDFa cell culture (sandwich ELISA); type: cell-based, human; conditions: 24 hours
# Procedure: The potential effect of Ac-SEQ ID NO: 3-NH2 peptide (synthesized in accordance with examples 1-3 and 5) on tropoelastin synthesis was evaluated in vitro using HDFa.
# HDFa were put in culture at a density of 1×10^4 cells/well in 96-well plates and incubated for 24 hours with non-cytotoxic increasing concentrations of Ac-SEQ ID NO: 3-NH2 peptide (0.01 mg/ml, 0.05 mg/ml, 0.1 mg/ml and 0.5 mg/ml). Untreated cells were included as basal control. At the end of the monitored experimental time cell culture media and cell lysates were extracted from all wells and stored at −80° C. Ex-novo synthesis of tropoelastin was measured by means of sandwich ELISA following manufacturer's instructions.
# Fibronectin 1 (FN1) = test: Gene expression modulation in HDFa (RTqPCR), FN1; type: cell-based, human; conditions: 0.1 mg/ml, 6 hours
# Procedure: as §1, §2, §3
# [4] = system: Metalloproteinase-3 (MMP3); test: Gene expression modulation in HDFa (RTqPCR), MMP3; type: cell-based, human; conditions: 0.1 mg/ml, 6 hours
# Procedure: as §1, §2, §3
# fibrillin-1 [5] = test: Modulation of fibrillin-1 synthesis on human skin explants (immunostaining); conditions: 0.005 mg/ml in cosmetic formulation, topical on days 0, 2, 4 and 7, explants collected day 9
# Procedure: The effect of Ac-SEQ ID NO: 3-NH2 peptide (synthesized in accordance with examples 1-3 and 5) on fibrillin-1 production was evaluated on human skin explants from a donor.
# Briefly, skin explants were treated with a cosmetic formulation containing 1% (m/v) from a stock at 0.05% (m/v) of Ac-SEQ ID NO: 3-N H2 (effective final concentration of Ac-SEQ ID NO: 3-N H2, 0.005 mg/ml). On days 0, 2, 4 and 7, the tested product was topically applied on the basis of 2 μl per cm^2 of skin explant and spread using a small spatula.
# On day 9, 3 explants from each condition were collected and frozen at −80° C. The frozen samples were cut into 7-μm-thick sections using a Leica CM 3050 cryostat. Sections were then mounted on Superfrost® plus silanized glass slides. The microscopical observations were performed using a Leica DMLB or Olympus BX43 microscope. Pictures were digitized with a numeric DP72 Olympus camera with CellD storing software.
# The nuclei were counterstained using propidium iodide. The immunostaining was performed using an automated slide-processing system (Dako, AutostainerPlus). The staining was assessed by microscopical observation and image analysis.
# Fibrillin-1 (FBN1) = test: Gene expression modulation in HDFa (RTqPCR), FBN1; type: cell-based, human; conditions: 0.05 mg/ml, 6 hours
# Procedure: as §1, §2, §3
# fibrillin-1 [6] = test: Modulation of fibrillin-1 synthesis in HDFa cell culture (sandwich ELISA); type: cell-based, human; conditions: 48 hours
# Procedure: Modulation of fibrilin-1 synthesis by Ac-SEQ ID NO: 3-NH2 peptide (synthesized in accordance with examples 1-3 and 5) was evaluated in vitro using HDFa.
# HDFa were seeded in 96-well plates at a density of 1×10^4 cells/well and they were put in contact with three non-cytotoxic concentrations of Ac-SEQ ID NO: 3-N H2 peptide: 0.01 mg/ml, 0.05 mg/ml and 0.1 mg/ml for 48 hours. Untreated cells were included as basal control. At the end of the monitored experiment, cell culture media were extracted from all wells and stored at −80° C. Modulation on fibrillin-1 levels was analyzed by means of sandwhich ELISA following manufacturer's instructions.
substance,measurement,setting,value
"Ac-ALHKVK-NH2 [Ac-SEQ ID NO: 3-NH2, Ac-Ala-Leu-His-Lys-Val-Lys-NH2]",increase in hyaluronic acid production compared to basal control,hyaluronic acid; 0.01 mg/ml,3%
same,increase in hyaluronic acid production compared to basal control,hyaluronic acid; 0.05 mg/ml,8%
same,increase in hyaluronic acid production compared to basal control,hyaluronic acid; 0.1 mg/ml,10%
same,increase in hyaluronic acid production compared to basal control,hyaluronic acid; 0.5 mg/ml,18%
same,"Versican gene expression, fold change vs basal control",Versican (VCAN),1.22
same,decrease in area of cheek deformation versus initial time,facial skin firmness,7%
same,decrease in depth of cheek deformation versus initial time,facial skin firmness,14.5%
same,decrease in volume of cheek deformation versus initial time,facial skin firmness,20%
same,increase in skin surface occupied by versican protein compared to basal control,versican [1],29%
same,"MMP1 gene expression, fold change vs basal control",[2],−1.33
same,cytotoxicity on HDFa,HDFa,non-cytotoxic
same,increase in versican synthesis compared to basal control,versican [3]; 0.01 mg/ml,24%
same,increase in versican synthesis compared to basal control,versican [3]; 0.05 mg/ml,35%
same,increase in versican synthesis compared to basal control,versican [3]; 0.10 mg/ml,62%
same,increase in tropoelastin synthesis compared to basal control,tropoelastin; 0.01 mg/ml,3%
same,increase in tropoelastin synthesis compared to basal control,tropoelastin; 0.05 mg/ml,11%
same,increase in tropoelastin synthesis compared to basal control,tropoelastin; 0.10 mg/ml,20%
same,increase in tropoelastin synthesis compared to basal control,tropoelastin; 0.50 mg/ml,31%
same,"Fibronectin 1 gene expression, fold change vs basal control",Fibronectin 1 (FN1),1.41
same,"MMP3 gene expression, fold change vs basal control",[4],−1.20
same,increase in skin surface occupied by fibrillin-1 protein compared to basal control,fibrillin-1 [5],24%
same,"Fibrillin 1 gene expression, fold change vs basal control",Fibrillin-1 (FBN1),1.55
same,increase in fibrillin-1 synthesis compared to basal control,fibrillin-1 [6]; 0.01 mg/ml,18%
same,increase in fibrillin-1 synthesis compared to basal control,fibrillin-1 [6]; 0.05 mg/ml,30%
same,increase in fibrillin-1 synthesis compared to basal control,fibrillin-1 [6]; 0.10 mg/ml,41%
